Structures can show the parent of a compound that is named as a salt.
test system: IRF pathway of THP-1; test: Test on the activity of IRF pathway of THP-1 (THP1-Dual reporter cells stimulated with 2'3'-cGAMP); type: cell-based; details: Homo sapiens, PMA-treated, 2'3'-cGAMP 5 ug/mL, QUANTI-Luc readout, read-out: IC50 of inhibition of the activity of IRF pathway
Description: 0.3 uM of PMA (phorbol myristate acetate, SIGMA, P1585) was added to THP1-Dual™ cells (NF-κB-SEAP IRF-Luc Reporter Monocytes, Invivogen, thpd-nfis), and the cells were cultured at 37° C. for 1 day in RPMI1640 with 10% Fetal Bovine Serum (FBS). A compound with a known concentration was added, and the cells were incubated at room temperature for 1 hour. Mammalian (non-canonical) CDN, cyclic [G(2′,5′)pA(3′,5′)p] (2′3′-cGAMP, Invivogen, tlrl-nacga23) was added to a final concentration of 5 ug/mL, and the cells were cultured at 37° C. On the following day, QUANTI-Luc™ (Secreted luciferase detection medium, Invivogen, rep-qlc) was added to the culture solution and the activity of IRF pathway was measured using a microplate reader. The inhibition ratio at each concentration was determined, where the activity of IRF pathway with no addition of the test compound or 2′3′-cGAMP was defined as 100% inhibition and the activity of IRF pathway with no addition of the test compound and with addition of 2′3′-cGAMP was defined as 0% inhibition. The IC50 value was calculated by sigmoid […] model non-linear regression analysis.

IC50	SMILES
594 nM	O=C(C#Cc1ccc(-c2ccc(OC(F)F)cc2)c(C(F)(F)F)c1)N[C@H]1COC[C@@H]1O [Example 62]
422 nM	O=C(C#Cc1ccc(-c2ccc(OC(F)F)cc2)c(C(F)(F)F)c1)N[C@@H]1COC[C@H]1O [Example 63]
448 nM	O=C(C#Cc1ccc(-c2cccc(OC(F)F)c2)c(C(F)(F)F)c1)N1C[C@@H](O)[C@@H](O)C1 [Example 64]
340 nM	O=C(C#Cc1ccc(-c2cccc(OC(F)F)c2)c(C(F)(F)F)c1)N1C[C@@H](O)[C@H](O)C1 [Example 65]
48 nM	O=C(C#Cc1ccc(-c2ccccc2OC(F)(F)F)c(C(F)(F)F)c1)N1C[C@@H](O)[C@H](O)C1 [Example 66]
38 nM	O=C(C#Cc1ccc(-c2ccccc2OC(F)(F)F)c(C(F)(F)F)c1)N[C@H]1COC[C@@H]1O [Example 67]
64 nM	O=C(C#Cc1ccc(-c2ccccc2OC(F)(F)F)c(C(F)(F)F)c1)N[C@@H]1COC[C@H]1O [Example 68]
190 nM	O=C(C#Cc1ccc(-c2ccccc2OC(F)(F)F)c(C(F)(F)F)c1)NCCO [Example 69]
35 nM	O=C(C#Cc1ccc(-c2ccccc2OC(F)(F)F)c(C(F)(F)F)c1)N1C[C@H](O)[C@@H](O)C1 [Example 70]
43 nM	O=C(C#Cc1ccc(-c2ccccc2OC(F)(F)F)c(C(F)(F)F)c1)N1C[C@@H](O)[C@@H](O)C1 [Example 71]
1210 nM	O=C(C#Cc1ccc(-c2ccccc2OC(F)(F)F)c(C(F)(F)F)c1)N[C@@H]1COC[C@@H]1O [Example 72]
99 nM	O=C(C#Cc1ccc(-c2ccccc2OC(F)(F)F)c(C(F)(F)F)c1)N[C@H]1COC[C@H]1O [Example 73]
48 nM	O=C(C#Cc1ccc(-c2ccccc2OC(F)(F)F)c(C(F)(F)F)c1)NC[C@@H](O)CO [Example 74]
73 nM	O=C(C#Cc1ccc(-c2ccccc2OC(F)(F)F)c(C(F)(F)F)c1)NC[C@H](O)CO [Example 75]
76 nM	CN(CCO)C(=O)C#Cc1ccc(-c2ccccc2OC(F)(F)F)c(C(F)(F)F)c1 [Example 76]
91 nM	O=C(C#Cc1ccc(-c2ccccc2OC(F)(F)F)c(C(F)(F)F)c1)N1CC(O)C1 [Example 77]
51 nM	O=C(C#Cc1ccc(-c2ccccc2OC(F)(F)F)c(C(F)(F)F)c1)N1CC(O)(CO)C1 [Example 78]
185 nM	O=C(C#Cc1ccc(-c2ccc(OC(F)F)cc2)c(C(F)(F)F)c1)N1C[C@@H](O)[C@@H](O)C1 [Example 79]
539 nM	O=C(C#Cc1ccc(-c2ccc(OC(F)F)cc2)c(C(F)(F)F)c1)N[C@H]1COC[C@H]1O [Example 80]
37 nM	O=C(C#Cc1ccc(-c2cccc(OC(F)F)c2)c(C(F)(F)F)c1)N[C@@H]1COC[C@@H]1O [Example 81]
239 nM	O=C(C#Cc1ccc(-c2cccc(OC(F)F)c2)c(C(F)(F)F)c1)N[C@H]1COC[C@H]1O [Example 82]
430 nM	O=C(C#Cc1ccc(-c2ccc(OC(F)F)cc2)c(C(F)(F)F)c1)N[C@@H]1COC[C@@H]1O [Example 83]
435 nM	O=C(C#Cc1ccc(-c2ccc(Cl)cc2)c(C(F)(F)F)c1)N1C[C@@H](O)[C@@H](O)C1 [Example 84]

IC50	SMILES
224 nM	O=C(C#Cc1cnc(-c2ccc(C(F)(F)F)cc2)c(C(F)(F)F)c1)N1C[C@@H](O)[C@@H](O)C1 [Example 85]
8040 nM	O=C(C#Cc1cnn(-c2ccc(F)cc2)c1C(F)(F)F)N1C[C@@H](O)[C@@H](O)C1 [Example 86]
1610 nM	O=C(C#Cc1ccc(-c2ccccn2)cc1)N(CCO)c1ccccc1 [Example 87, N-(2-hydroxyethyl)-N-phenyl-3-[4-(pyridin-2-yl)phenyl]prop-2-ynamide]
5550 nM	CN1CCN(C(=O)C#Cc2ccc(-c3ccncc3)cc2)CC1 [Example 88, 1-(4-methylpiperazin-1-yl)-3-[4-(pyridin-4-yl)phenyl]prop-2-yn-1-one]
1690 nM	O=C(C#Cc1ccc(-c2cccnc2)cc1)N(CCO)c1ccccc1 [Example 89]
471 nM	O=C(C#Cc1ccc(-c2ccccc2)c(C(F)(F)F)c1)Nc1cccc(C(=O)O)c1 [Example 90, 3-({3-[2-(trifluoromethyl)[1,1′-biphenyl]-4-yl]prop-2-ynoyl}amino)benzoic acid]
767 nM	O=C(O)c1ccc2c(c1)N(C(=O)C#Cc1ccc(-c3ccccc3)c(C(F)(F)F)c1)CC2 [Example 92, 1-{3-[2-(trifluoromethyl)[1,1′-biphenyl]-4-yl]prop-2-ynoyl}-2,3-dihydro-1H-indole-6-carboxylic acid]
919 nM	O=C(O)CCCN1CCN(C(=O)C#Cc2ccc(-c3ccccc3)c(C(F)(F)F)c2)CC1 [Example 93]
11800 nM	O=C(O)C1CCN(C(=O)C#Cc2ccc(-c3ccccc3)c(C(F)(F)F)c2)C1 (stereo not shown) [Example 94]
1440 nM	CN1CCN(C(=O)C#Cc2cnn(-c3ccc(C(F)(F)F)cc3)c2)CC1 [Example 95, 1-(4-methylpiperazin-1-yl)-3-{1-[4-(trifluoromethyl)phenyl]-1H-pyrazol-4-yl}prop-2-yn-1-one]
80 nM	O=C(C#Cc1ccc(-c2ccccc2)c(CN2CCCCC2)c1)N(C[C@@H](O)CO)c1ccccc1 [Example 96, N-[(2R)-2,3-dihydroxypropyl]-N-phenyl-3-{2-[(piperidin-1-yl)methyl][1,1′-biphenyl]-4-yl}prop-2-ynamide]
4610 nM	O=C(C#Cc1ccc(-c2ccccc2)c(CN2CCOCC2)c1)NC[C@H](O)CO [Example 97]
2570 nM	COC1CCN(Cc2cc(C#CC(=O)NC[C@H](O)CO)ccc2-c2ccccc2)CC1 [Example 98]
125 nM	N[C@H]1CCN(C(=O)C#Cc2ccc(-c3ccccc3)c(C(F)(F)F)c2)C1 [Example 100, 1-[(3S)-3-aminopyrrolidin-1-yl]-3-[2-(trifluoromethyl)[1,1′-biphenyl]-4-yl]prop-2-yn-1-one monooxalate]
190 nM	N[C@@H]1CCN(C(=O)C#Cc2ccc(-c3ccccc3)c(C(F)(F)F)c2)C1 [Example 101]
842 nM	CN1CC2(C1)CN(C(=O)C#Cc1ccc(-c3ccccc3)cc1)C2 [Example 102]
402 nM	O=C(C#Cc1ccc(-c2ccccc2)c(C(F)(F)F)c1)N1CC[C@H](O)C1 [Example 103]
1790 nM	O=C(C#Cc1ccc(C2CCOCC2)c(C(F)(F)F)c1)N1C[C@@H](O)[C@@H](O)C1 [Example 104]
620 nM	CC(C)(C)n1cc(-c2ccc(C#CC(=O)N3C[C@@H](O)[C@@H](O)C3)cc2C(F)(F)F)cn1 [Example 105]
358 nM	O=C(C#Cc1ccc(-c2ccccc2)c(C(F)(F)F)c1)N[C@H]1C[C@@H](O)[C@@H](O)C1 [Example 106, N-[(1r,3R,4S)-3,4-dihydroxycyclopentyl]-3-[2-(trifluoromethyl)[1,1′-biphenyl]-4-yl]prop-2-ynamide]
489 nM	O=C(C#Cc1ccc(-c2ccccc2)c(C(F)(F)F)c1)N[C@@H]1C[C@@H](O)[C@@H](O)C1 [Example 107]
263 nM	O=C(C#Cc1ccc(-c2ccccc2)c(C(F)(F)F)c1)N1CC[C@@H](O)C1 [Example 108]

SMILES	IC50
O=C(O)CCN1CCN(C(=O)C#Cc2ccc(-c3ccccc3)c(C(F)(F)F)c2)CC1 [Example 91, 3-(4-{3-[2-(trifluoromethyl)[1,1′-biphenyl]-4-yl]prop-2-ynoyl}piperazin-1-yl)propanoic acid monohydrochloride]	600 nM
